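All cell lines were grown in 96-well plates and treated with compound for 48 hours. Here, GI50 denotes the concentration required for 50% inhibition of growth. TGI denotes the concentration required for complete inhibition of growth.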

Common to all, as to experiment: DTP human tumour cell line panel, 48 h
Test [1] deals with BT-549 breast.
Test [2] has as its system DU-145 prostate.
Test [3] relates to HOP-18 NSCLC.
The subject of test [4] is HS 578T breast.
Test [5] concerns LXFL 529 NSCLC.
Test [6] concerns MDA-N.
Test [7] deals with NCI/ADR-RES ovarian.
The subject of test [8] is RXF-631 renal.
Test [9] concerns T-47D breast.

As a reminder, the TGI is the concentration giving total growth inhibition. In the case of `Cc1cc(Cl)cc2c1NC(=O)C2(O)CC(=O)c1ccco1` (configuration not stated), the concentration for total growth inhibition (TGI) in test [1] was more than 100 µM; in [2] it was more than 100 µM; in test [3], more than 100 µM; in test [4] it was more than 100 µM; in test [5] it was more than 100 µM; in [6], 22.9 µM. Further, the TGI in test [7], in test [8] and in [9] was more than 100 µM throughout.
With `CCOC(=O)/C(C#N)=C/c1[nH]c(C(=O)OCc2ccccc2)c(C)c1C`, the concentration for total growth inhibition (TGI) in [3], in test [5] and in [8] was more than 100 µM throughout.
`Nc1cccc(S(=O)(=O)NCC(=O)O)c1`: the TGI in [3], in test [5] and in test [8] was more than 100 µM each time.
Consider `CC(=O)OCC1OC(NC(=S)N/N=C2\CC(c3ccccc3)Oc3ccccc32)C(OC(C)=O)C(OC(C)=O)C1OC(C)=O` (configuration not stated), for which the TGI in test [3], in test [5] and in test [8] was more than 100 µM throughout.
By GI50 is commonly meant the concentration giving 50% growth inhibition. On to `CCC[CH2][Sn]1([CH2]CCC)[O]C(=O)CN=Cc2c(ccc3ccccc23)[O]1`, for which the GI50 in test [3] is 0.223 µM; in [5] it was 0.107 µM; in test [8], 0.0181 µM. The TGI in test [3] is 1.52 µM; in test [5], 0.249 µM; in test [8] it was 0.0331 µM.
`COCCCNC(=O)C1C(=O)C(=O)N(CCCOC)C1=O` (configuration not stated): the TGI in [3], in test [5] and in test [8] was more than 100 µM each time.
Regarding `N#C/C(=C\c1ccc2ccccc2c1)c1ccccc1`, the TGI in test [3], in test [5] and in test [8] was more than 100 µM throughout.
As to `CNC(=O)C1CCc2nnc(-c3ccccc3)n21` (configuration not stated), the TGI in test [3], in [5] and in test [8] was more than 100 µM in each case.
In the case of `COc1ccc2c(c1)[n+](=O)c(C(=O)C/C(=N/OCCCc1ccccc1)C(=O)NC13CC4CC(CC(C4)C1)C3)c(C)n2[O-]`, the TGI in test [3], in test [5] and in test [8] was more than 100 µM each time.
Turning to `NC(=O)COC(=O)c1c(Cl)nc2sccn12`, the TGI in [3], in test [5] and in [8] was more than 100 µM each time.
Consider `O=C(CC1(O)C(=O)Nc2c(Cl)ccc(Cl)c21)c1ccc(F)cc1` (configuration not stated), for which the TGI in test [3] is more than 100 µM; in test [5] it was 92.1 µM; in [8] it was more than 100 µM.

The values above are taken from PubChem BioAssay (NCI).
